Our source for the IC50 and half-life values is patent US6933317B2, “PGD2 receptor antagonistic pharmaceutical compositions” (Shionogi & Co. Ltd., priority 2000, dated 2005).

Data set [1] has as its target T1, PGD2 receptor (Homo sapiens, UniProt Q13258).
T1 construct: Peripheral blood was collected from a healthy volunteer; endogenous in cells; host or cells: washed human platelets from peripheral blood of a healthy volunteer
T1 sequence (Q13258 1-359): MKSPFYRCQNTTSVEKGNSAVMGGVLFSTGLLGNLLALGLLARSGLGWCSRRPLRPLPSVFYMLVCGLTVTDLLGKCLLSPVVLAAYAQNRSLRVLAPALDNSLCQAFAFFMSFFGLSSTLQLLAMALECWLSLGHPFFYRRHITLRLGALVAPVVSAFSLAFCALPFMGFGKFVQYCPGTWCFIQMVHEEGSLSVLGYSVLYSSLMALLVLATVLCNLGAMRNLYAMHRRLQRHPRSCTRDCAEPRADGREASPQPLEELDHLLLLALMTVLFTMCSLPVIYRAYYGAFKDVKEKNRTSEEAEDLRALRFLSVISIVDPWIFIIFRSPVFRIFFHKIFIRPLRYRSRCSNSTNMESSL
Put plainly: Binding activity to PGD2 receptor (human platelet membrane fraction, [3H]PGD2). As to conditions: 5 nM [3H]PGD2, 4° C., 90 min. As for the experimental part:
Experiment 1 Binding Activity to PGD2 Receptor
(1) Preparation of Human Platelet Membrane Fraction
Blood was collected using a plastic syringe containing 3.8% sodium citrate from the vein of healthy volunteers (adult male and female), then put into a plastic test tube and mixed by slow-reversion. The sample was then centrifuged at 1800 rpm, for 10 min at room temperature, and the supernatant containing PRP (platelet-rich plasma) was collected. The PRP was re-centrifuged at 2300 rpm, for 22 min at room temperature to obtain platelets. The platelets were homogenized using a homogenizer (Ultra-Turrax) followed by centrifugation 3 times at 20,000 rpm, 10 min at 4° C. to obtain a platelet membrane fraction. After protein determination, the membrane fraction was adjusted to 2 mg/ml and preserved in a refrigerator at −80° C. until using for the binding test.
(2) Binding to PGD2 Receptor
To a binding-reaction solution (50 mM Tris/HCl, pH 7.4, 5 mM MgCl2) (0.2 ml) were added the human platelet membrane fraction (0.1 mg) and 5 nM [^3H]PGD2 (115 Ci/mmol), and the mixture was reacted at 4° C. for 90 min. After the reaction, the mixture was filtered through a glass fiber filter paper and washed several times with cooled physiological saline, then the radioactivity retained on the filter paper was measured. The specific-binding ratio was calculated by subtracting the non-specific binding ratio which is the radioactivity similarly measured in the presence of 10 μM PGD2 from the total binding. The inhibitory activity of each compound was expressed as the concentration required for 50% inhibition (IC50), which was determined by depicting a substitution curve by plotting the binding ratio (%) in the presence of each compound, where the binding ratio in the absence of a test compound is 100%.

Data set [2] addresses T1, PGD2 receptor. Put plainly: Antagonistic activity against PGD2 receptor using human platelet (inhibition of PGD2-induced cAMP increase). Particulars: 0.1 μM PGD2, cAMP by radioimmunoassay, read-out: Inhibitory activity for the increase of cAMP caused by PGD2 in human platelet IC50. The format is cell-based. As for the experimental part:
Experiment 2 Evaluation of Antagonistic Activity Against PGD2 Receptor Using Human Platelet
Peripheral blood was collected from a healthy volunteer using a syringe in which 1/9 volume of a citric acid/dextrose solution was previously added. The sample was subjected to centrifugation at 1200 rpm for 10 min to obtain the supernatant (PRP: platelet rich plasma). The resultant PRP was washed 3 times with a washing buffer and the number of platelets was counted with a micro cell counter. A suspension adjusted to contain the platelets at a final concentration of 5×10^8/ml was warmed at 37° C., then subjected to the pre-treatment with 3-isobutyl-1-methylxanthine (0.5 mM) for 5 min. To the suspension was added a test compound diluted at various concentration, and 10 minutes later, 0.1 μM PGD2 was added to induce the reaction 2 minutes later, hydrochloric acid was added to terminate the reaction. The platelet was destroyed with an ultrasonic homogenizer. After centrifugation, the cAMP in the supernatant was determined by radioimmunoassay.

Data set [3] can be described thus: Change of plasma concentration of drug in rat (half life of the disappearance after intravenous administration). The data set is classed as in vivo. Particulars: Jcl-SD male rats, 0.5 to 2 mg/kg, plasma concentration of unchanged compound. As for the experimental part:
Experiment 3 Change of Plasma Concentration of Drug in Rat
Compound (0.5 to 2 mg/kg) was administered intravenously to Jcl-SD male rats. The concentration of the unchanged compound was measured at 2, 5, 15, 30, 60, 120, and 240 min after the administration by the use of HPLC (determination limit; 0.05 μg/ml) and LC/MS/MS (determination limit; 0.001 μg/ml) and the half life of the disappearance was calculated. [drawing 387]

pIC50: −log10 of the molar value.

The term pIC50 denotes the IC50 on a negative log10 scale, so that one unit is a factor of ten. For `CC1(C)[C@H]2C[C@H](CCCCOCC(=O)O)[C@@H](NC(=O)c3csc4ccc(O)cc34)[C@@H]1C2` [IIc-23], the values for the pIC50 at PGD2 receptor [1] and on PGD2 receptor [2] were 8.02 and 8.31, respectively.
The half-life is how long it takes for the measured level to halve. The low end stands for fast loss, the high end for slow loss. As to `CC1(C)[C@H]2C[C@H](CCCCOCC(=O)O)[C@@H](NC(=O)c3coc4ccc(O)cc34)[C@@H]1C2` [IIc-52], the pIC50 at PGD2 receptor [1] was 8.46; at PGD2 receptor [2] it was 8.09. The half-life in data set [3] is 23.4 min.
Regarding `O=C(O)COCCCC[C@H]1[C@@H]2CC[C@@H](C2)[C@@H]1NC(=O)c1coc2ccc(O)cc12` [Ic-52], the pIC50 at PGD2 receptor [1] was 7.13; at PGD2 receptor [2], 8.00.
The like results for `CC1(C)[C@H]2C[C@H](CCCC/C=C/C(=O)O)[C@@H](NC(=O)c3csc4ccc(O)cc34)[C@@H]1C2` [IIa-23] were, in that order, 7.48 and 8.60.
